One series addresses T1, human SGLT1 (Homo sapiens, UniProt P13866).
T1 sequence (P13866 1-664): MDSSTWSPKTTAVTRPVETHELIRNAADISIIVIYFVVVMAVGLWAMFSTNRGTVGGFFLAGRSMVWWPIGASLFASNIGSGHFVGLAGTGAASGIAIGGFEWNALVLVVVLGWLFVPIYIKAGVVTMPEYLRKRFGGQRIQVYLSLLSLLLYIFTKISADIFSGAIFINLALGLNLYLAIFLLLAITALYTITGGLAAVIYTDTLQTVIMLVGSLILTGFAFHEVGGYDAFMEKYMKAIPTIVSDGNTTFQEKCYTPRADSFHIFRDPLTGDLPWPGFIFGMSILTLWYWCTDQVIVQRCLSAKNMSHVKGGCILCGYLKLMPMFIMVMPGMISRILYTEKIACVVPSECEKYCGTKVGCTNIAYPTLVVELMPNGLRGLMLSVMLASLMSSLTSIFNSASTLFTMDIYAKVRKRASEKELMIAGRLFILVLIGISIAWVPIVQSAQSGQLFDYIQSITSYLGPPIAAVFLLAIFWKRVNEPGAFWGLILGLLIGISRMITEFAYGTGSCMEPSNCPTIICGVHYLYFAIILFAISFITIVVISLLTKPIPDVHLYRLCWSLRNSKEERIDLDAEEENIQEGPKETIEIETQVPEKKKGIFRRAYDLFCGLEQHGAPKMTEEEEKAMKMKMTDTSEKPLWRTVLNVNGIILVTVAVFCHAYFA
The experiment in a line: Assessment of SGLT1 inhibitory activity (14C-AMG uptake in human SGLT1-stably-expressing CHO-K1 cell line). The series is classed as cell-based. As to conditions: qualitative statement. The procedure: Assessment of SGLT1 Inhibitory Activity
SGLT1 inhibitory activities of test compounds (IC50 values) were calculated based on the amount of intracellular uptake of labelled […] (^14C-AMG) transported by SGLT1.
1) Formation of Human SGLT1-Expressing Plasmid
A DNA fragment containing human SGLT1 was amplified by PCR (Polymerase Chain Reaction) using pCMV6-hSGLT1 (OriGene) as a template. In the human SGLT1, NheI recognition and cleavage sequence was added to the upstream of Kozac consensus sequence derived from a vector, and a stop codon, TAG, and SalI recognition and cleavage sequence were added to the immediate downstream of the protein-translating region of human SGLT1. […]
Human SGLT1-stably-expressing cell lines were seeded at 5×10^4 cells/well on BioCoat™ Poly-D-Lysine 96 well plate with Lid (Becton, Dickinson and Company) and cultured at 37° C. under 5% CO2 overnight. […] In the assessment for the uptake ability of ^14C-AMG, the total amount of the cell lysate was transferred to OptiPlate 96 (Perkin-E1mer) with 100 μL/well of MicroScint-40 (Perkin-E1mer) dispensed and ^14C of CPM was measured with TOPCOUNT NXT (Perkin-E1mer).
Data was calculated by deducting the average value of CPM for blank well from the average value of CPM for each well treated. […]

Series [1] relates to glucose-loaded SD rats. The experiment in a line: OGTT (Oral Glucose Tolerance Test), Test Example 2. The series is classed as in vivo, rat. As to conditions: 1, 3, or 10 mg/kg oral, 16 hours before glucose load; compared to vehicle. The procedure: (§1) OGTT (Oral Glucose Tolerance Test)
Vehicle (0.5% methylcellulose solution) or Compound 1 (1, 3, or 10 mg/kg) suspended in a 0.5% methylcellulose solution was orally administered in 5 mL/kg to an about 4-hour-fasted male SD rat (8-week old, Nihon Charles River K.K., 6 cases for each group). […] Statistical analyses were based on Steel's multiple test. The significance level was two-sided 5%.

Series [2] deals with glucose-loaded SD rats. The experiment in a line: OGTT (Oral Glucose Tolerance Test), Test Example 3. As to conditions: 3 mg/kg oral, 16 hours before glucose load; compared to vehicle. In kind it is in vivo, rat. The procedure: as §1
Vehicle (0.5% methylcellulose solution), or Compound 1, Compound A, or Compound B (3 mg/kg each) suspended in a 0.5% methylcellulose solution was orally administered in 5 mL/kg to an about 4-hour-fasted male SD rat (8-week old, Nihon Charles River K.K., 5 cases for each group).
Statistical analyses were based on Dunnett's multiple group test. The significance level was two-sided 5%.

The test system of the next series is male SDT fatty rats. The experiment in a line: Assessment of renal protective effect (GFR in SDT fatty rats), Test Example 5. The series is classed as in vivo, rat. As to conditions: 2 mg/kg oral once a day, 16 weeks; vs vehicle group of SDT fatty rats. Here is the method:
Assessment of Renal Protective Effect
Vehicle (0.5% methyl cellulose solution), Compound 1 (2 mg/kg), or dapagliflozin (0.3 mg/kg) was orally administered once a day to male SDT fatty rats (7-week old, CLEA Japan, Inc.); and as a normal control, vehicle was orally administered once a day to male SD rats (7-week old, CLEA Japan, Inc.). 16 Weeks after the administration, GFR (mL/min/100 g B.W.) was measured with a transdermal GFR monitor (MediBeacon). For statistical analysis, Student's test was conducted between the vehicle-administered group of SD rats and the vehicle-administered group of SDT fatty rats. Dunnett's multiple test was conducted for the Compound 1 and dapagliflozin groups to the vehicle group of SDT fatty rats. The significance level was two-sided 5%.

The subject of series [3] is 5/6-kidney-removed rats (male Wistar). The experiment in a line: Assessment of renal protective effect 2 (5/6-kidney-removed rats), Test Example 6. In kind it is in vivo, rat. As to conditions: 2 mg/kg/day mixed with feed, vs vehicle-administered group. The procedure:
Assessment of Renal Protective Effect 2
7-Week old male Wistar rats (Japan SLC, Inc.) were treated by removing 2/3 of the left kidney under isoflurane anesthesia and then removing the whole right kidney one week later to prepare 5/6-kidney-removed rats. Compound 1 (2 mg/kg/day) mixed with feed was orally administered to the rats from the age of 9 weeks. As a normal control, male Wistar rats at the same age were set as a sham group. […] For statistical analysis, Student's test was conducted between the vehicle-administered group and the Compound 1-administered group. […] For statistical analysis, Student's test or Aspin-Welch was conducted.

This note sets out measurements from US12721844B2, “Chronic kidney disease treatment or prevention method” (Japan Tobacco Inc., priority 2019, dated 2026).

`C[C@H]1C(=O)NC[C@@H]1C(=O)Nc1cc(-c2cc(F)cc(OC(C)(C)C)c2)n(C(F)(F)F)n1` [Example 1, (3R,4R)-N-(5-(3-(tert-butoxy)-5-fluorophenyl)-1-(trifluoromethyl)-1H-pyrazol-3-yl)-4-methyl-5-oxopyrrolidine-3-carboxamide]: the SGLT1 inhibitory activity result on human SGLT1 is “confirmed to have the SGLT1 inhibitory activity”. In the series with glucose-loaded SD rats [1], the “blood glucose level after the glucose load (Δ AUC to 120 minutes, % of Vehicle)” value is “significantly reduced the blood glucose level”. The “blood glucose level after the glucose load (Δ AUC to 120 minutes, % of Vehicle)” value in the series on glucose-loaded SD rats [2] is given as “significantly reduced the blood glucose level”. In addition, the “GFR (mL/min/100 g B.W.)” value in the series on male SDT fatty rats is recorded as “inhibited the increase of GFR”. In addition, in series [3] (16, 30, and 69 days), the “protein quantities in the urine (mg/mgCr)” value was “lower than those of the vehicle-administered group”. Also, in series [3], the “creatinine clearance (mL/min)” value is listed as “significantly higher than that of the vehicle-administered group” and the “urea nitrogen levels (mg/dL)” value was “significantly lower than those of the vehicle-administered group”.
